“And” between values parts separate entries of the source, which are not always exact repeats. Equal values may be shown once.
Tests used:
[1] = Liquid, Other PVT measurement
[2] = xn = mol fraction of the nth substance listed; conditions: Liquid, Other PVT measurement, x2 = 0

CCCCn1cc[n+](C)c1.F[B-](F)(F)F [1-butyl-3-methylimidazolium tetrafluoroborate]
mass density, [1]
Conditions	100 kPa	200 kPa	600 kPa	1000 kPa	1400 kPa	1800 kPa	2000 kPa
293.15 K	1198 kg/m3	–	–	–	–	–	–
313.15 K	1183 kg/m3	1185 kg/m3	1186 kg/m3	1186 kg/m3	1186 kg/m3	1187 kg/m3	1186.93 kg/m3 and 1187 kg/m3
353.15 K	–	1159 kg/m3	1160 kg/m3	1160 kg/m3	1160 kg/m3	1161 kg/m3	1160.82 kg/m3 and 1161 kg/m3
393.15 K	–	–	1135 kg/m3	1135 kg/m3	1135 kg/m3	1136 kg/m3	1135.92 kg/m3 and 1136 kg/m3
433.15 K	–	–	–	1112 kg/m3	1112 kg/m3	1113 kg/m3	1113 kg/m3
473.15 K	–	–	–	–	–	1086 kg/m3	1087 kg/m3

CC#N [acetonitrile]
mass density [kg/m3], [1]
Conditions	200 kPa	600 kPa	1000 kPa	1400 kPa	1800 kPa	2000 kPa
313.15 K	755	755	756	756	757	757
353.15 K	710	711	711	711	712	713
393.15 K	–	664	664	665	666	666
433.15 K	–	–	611	612	614	614
473.15 K	–	–	–	–	550	552

CC#N [acetonitrile] + CCCCn1cc[n+](C)c1.F[B-](F)(F)F
mass density [kg/m3], [2]
Conditions	200 kPa	600 kPa	1000 kPa	1400 kPa	1800 kPa	2000 kPa
313.15 K	755	755	756	756	757	757
353.15 K	710	711	711	711	712	713
393.15 K	–	664	664	665	666	666
433.15 K	–	–	611	612	614	614
473.15 K	–	–	–	–	550	552

CCO [ethanol]
mass density [kg/m3], [1]
Conditions	200 kPa	600 kPa	1000 kPa	1400 kPa	1800 kPa	2000 kPa
313.15 K	770	770	770	771	771	772
353.15 K	734	734	735	735	736	738
393.15 K	–	691	692	693	694	694
433.15 K	–	–	–	638	639	639

CCO [ethanol] + CCCCn1cc[n+](C)c1.F[B-](F)(F)F
mass density [kg/m3], [2]
Conditions	200 kPa	600 kPa	1000 kPa	1400 kPa	1800 kPa	2000 kPa
313.15 K	770	770	770	771	771	772
353.15 K	734	734	735	735	736	738
393.15 K	–	691	692	693	694	694
433.15 K	–	–	–	638	639	639

O [water]
[1]
Conditions	mass density [kg/m3]
313.15 K, 200 kPa	993
313.15 K, 2000 kPa	995
353.15 K, 200 kPa	975
353.15 K, 400 kPa	975
373.15 K, 800 kPa	963
373.15 K, 1200 kPa	963
393.15 K, 200 kPa	949
393.15 K, 400 kPa	949
393.15 K, 1600 kPa	950
393.15 K, 2000 kPa	950
433.15 K, 800 kPa	912
433.15 K, 1200 kPa	912
473.15 K, 1600 kPa	871
473.15 K, 2000 kPa	871

Source: the NIST ThermoML archive (doi:10.1021/je900048r)
